We go through 9 compounds from patent publication US20060235013A1, “Tricyclic azole derivatives” (priority 2005, published 2006).

One experiment addresses T1, Aurora A kinase (Homo sapiens, UniProt O14965).
T1 sequence (O14965 1-403): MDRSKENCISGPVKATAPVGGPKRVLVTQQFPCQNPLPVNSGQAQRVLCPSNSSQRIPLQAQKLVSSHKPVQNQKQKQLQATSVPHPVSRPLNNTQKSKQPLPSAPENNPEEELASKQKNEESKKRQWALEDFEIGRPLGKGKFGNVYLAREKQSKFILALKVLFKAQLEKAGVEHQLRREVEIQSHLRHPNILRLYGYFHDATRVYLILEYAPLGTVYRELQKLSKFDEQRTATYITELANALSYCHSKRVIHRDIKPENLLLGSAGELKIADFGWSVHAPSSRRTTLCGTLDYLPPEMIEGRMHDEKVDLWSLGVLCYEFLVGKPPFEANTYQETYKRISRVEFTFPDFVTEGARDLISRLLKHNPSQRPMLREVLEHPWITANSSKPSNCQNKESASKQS
Kind of experiment: IC50 determination for inhibitors of Aurora A (ELISA-type kinase assay, GST-Histone H3 substrate). To be noted: mutant Aurora A kinase, 30 μM ATP, 40 minutes, read-out: IC50 Aurora A kinase inhibition. Type of experiment: biochemical. On the procedure: IC50 Determination for Inhibitors of Aurora A
Aurora A is a serine threonine kinase involved in spindle assembly and chromosome segregation.
The assay is a typically ELISA-type assay where substrate (GST-Histone H3) is coupled to the assay-plate and is phosphorylated by the kinase. Phosphorylation is detected by a mouse anti-Phosphopeptid mAb and an HRP-labeled anti-mouse pAb. The assay is validated for IC50-determination.
Kinase activities were measured by Enzyme-Linked Immunosorbent Assay (ELISA): Maxisorp 384-well plates (Nunc) were coated with recombinant fusion protein comprising residues 1-15 of HistoneH3 fused to the N-terminus of Glutathione-S-Transferase. Plates were then blocked with a solution of 1 mg/mL I-block (a highly purified form of casein, Tropix cat. no. T2015) in phosphate-buffered saline. Kinase reactions were carried out in the wells of the ELISA plate by combining an appropriate amount of mutant Aurora A kinase with test compound and 30 μM ATP. The reaction buffer was 10× Kinase Buffer (Cell Signaling cat. no. 9802) supplemented with 1 μg/mL I-block. Reactions were stopped after 40 minutes by addition of 25 mM EDTA. After washing, substrate phosphorylation was detected by addition of anti-phospho-Histone H3 (Ser 10) 6G3 mAb (Cell Signaling cat. no. 9706) and sheep anti-mouse pAb-HRP (Amersham cat. no. NA931V), followed by colorimetric development with TMB (3,3′,5,5′-tetramethylbenzidine from Kirkegaard & Perry Laboratories). After readout of the adsorbance, IC50 values were calculated using a non-linear curve fit (XLfit software (ID Business Solution Ltd., Guilford, Surrey, UK)).
On the technique in general: An ELISA detects its analyte on a solid surface through an enzyme-linked reagent.

Another experiment concerns HCT 116 cells. Kind of experiment: Viability assay in HCT 116 cells (CellTiter-Glo Luminescent Cell Viability Assay). The format is cell-based. Particulars: HCT 116 human colon carcinoma cells, 5 days (120 h) incubation, ATP luminescence. Here is the method: Viability Assay in HCT 116 Cells
A viability assay was performed using the CellTiter-Glo® Luminescent Cell Viability Assay (see Promega Corporation's Technical Bulletin No. 288, pp. 1-11 [revised February 2004] which is hereby incorporated by reference in its entirety). This assay is a homogeneous method of determining the number of viable cells in culture based on quantitation of the ATP present, an indicator of metabolically active cells. The assay is designed for use with multiwell formats, making it ideal for automated high-throughput screening (HTS), cell proliferation and cytotoxicity assays. The homogenous assay procedure involves adding a single reagent (containing luciferase, luciferan substrate, and buffer) directly to cells cultured in serum-supplemented medium. Cell washing, removal of medium and multiple pipetting steps are not required. The system detects as few as 15 cells/well in a 384-well format in 10 minutes after adding reagent and mixing.
The homogeneous “add-mix-measure” format results in cell lysis and generation of a luminescent signal proportional to the amount of ATP present. The amount of ATP is directly proportional to the number of cells present in culture. The above-referenced assay generates a “glow-type” luminescent signal, produced by the luciferase reaction, which has a half-life generally greater than five hours, depending on cell type and medium used. The extended half-life eliminates the need to use reagent injectors and provides flexibility for continuous or batch mode processing of multiple plates. The unique homogeneous format avoids errors that may be introduced by other ATP measurement methods that require multiple steps.
HCT 116 cells (human colon carcinoma, ATCC-No. CCl-247) were cultivated in RPMI 1640 medium with GlutaMAX™ I (cell culture media that contains L-Alanyl-L-Glutamine [a stabilized a form/source of L-Glutamine] from Invitrogen, Cat-No. 61870-010), 2.5% Fetal Calf Serum (FCS, Sigma Cat-No. F4135 (FBS)); 100 Units/ml penicillin/100 μg/ml streptomycin (=Pen/Strep from Invitrogen Cat. No. 15140). For the assay the cells were seeded in 384 well plates, 1000 cells per well, in the same medium. The next day the test compounds were added in various concentrations ranging from 30 μM to 0.0015 μM (10 concentrations, 1:3 diluted). After 5 days the viability assay was done according to the instructions of the manufacturer. In brief: the cell-plate was equilibrated to room temperature for approximately 30 minutes and then reagent (containing luciferase, luciferan substrate, and buffer) was added. The contents were carefully mixed for 15 minutes to induce cell lysis. After 45 minutes the luminescent signal was measured in Victor 2, (scanning multiwell spectrophotometer, Wallac).
Medium: RPMI 1640 with cell culture media containing L-Alanyl-L-Glutamine [GlutaMAX™ I (Invitrogen, Cat-No. 61870)], 5% FCS (Sigma Cat.-No. F4135), Pen/Strep (Invitrogen, Cat No. 15140).
HCT116 (ATCC-No. CCl-247): 1000 cells in 60 μl per well of 384 well plate (Greiner 781098, μClear-plate white)
After seeding incubate plates 24 h at 37° C., 5% CO2
2nd. Day: Induction (Treatment with Compounds, 10 Concentrations):
In order to achieve a final concentration of 30 μM as highest concentration 3.5 μl of 10 mM compound stock solution were added directly to 163 μl media. Then step (d) of the dilution procedure described below, was followed.
In order to achieve the second highest to the lowest concentrations, a serial dilution with dilution steps of 1:3 was followed according to the procedure (a-d) as described here below:
(a) for the second highest concentration add 10 μl of 10 mM stock solution of compound to 20 μl dimethylsulfoxide (DMSO)
(b) dilute 8×1:3 (always 10 μl to 20 μl DMSO) in this DMSO dilution row (results in 9 wells with concentrations from 3333.3 μM to 0.51 μM)
(c) dilute each concentration 1: 47.6 (3.5 μl compound dilution to 163 μl media)
(d) add 10 μl of every concentration to 60 μl media in the cell plate […]

Turning to `CCN1C(=O)C(C)(C)c2cc3nc(-c4n[nH]c5c4CN(C(=O)c4ccc(F)cc4)CC5)[nH]c3cc21` [Example 16, 5-Ethyl-2-[5-(4-fluoro-benzoyl)-4,5,6,7-tetrahydro-1H-pyrazolo[4,3-c]pyridin-3-yl]-7,7-dimethyl-5,7-dihydro-3H-imidazo[4,5-f]indol-6-one], the IC50 at Aurora A kinase was 55 nM; in the experiment with HCT 116 cells, 100 to 2000 nM. The like results for `CC(C)N1C(=O)C(C)(C)c2cc3nc(-c4n[nH]c5c4CCCC5)[nH]c3cc21` [Example 9, 5-Isopropyl-7,7-dimethyl-2-(4,5,6,7-tetrahydro-1H-indazol-3-yl)-5,7-dihydro-3H-imidazo[4,5-f]indol-6-one] were, in that order, 12 nM and 108 nM. As for `CCN1C(=O)C(C)(C)c2cc3nc(-c4n[nH]c5c4CN(S(=O)(=O)c4ccc(F)cc4)CC5)[nH]c3cc21` [Example 17, 5-Ethyl-2-[5-(4-fluoro-benzenesulfonyl)-4,5,6,7-tetrahydro-1H-pyrazolo[4,3-c]pyridin-3-yl]-7,7-dimethyl-5,7-dihydro-3H-imidazo[4,5-f]indol-6-one], the IC50 at Aurora A kinase was 14 nM; in the experiment with HCT 116 cells it was 100 to 2000 nM.

As for `CC1(C)C(=O)N(CCCN2CCOCC2)c2cc3[nH]c(-c4n[nH]c5c4CCC5)nc3cc21` [Example 6, 7,7-Dimethyl-5-(3-morpholin-4-yl-propyl)-2-(1,4,5,6-tetrahydro-cyclopentapyrazol-3-yl)-5,7-dihydro-3H-imidazo[4,5-f]indol-6-one], the IC50 in the experiment on HCT 116 cells came out at 682 nM. Turning to `CC(C)N1C(=O)C(C)(C)c2cc3nc(-c4n[nH]c5c4CCC5)[nH]c3cc21` [Example 5, 5-Isopropyl-7,7-dimethyl-2-(1,4,5,6-tetrahydro-cyclopentapyrazol-3-yl)-5,7-dihydro-3H-imidazo[4,5-f]indol-6-one], on Aurora A kinase, the half-inhibitory concentration (IC50) was 17 nM.

As for `CCN1C(=O)C(C)(C)c2cc3nc(-c4n[nH]c5c4COCC5)[nH]c3cc21` [Example 11, 5-Ethyl-7,7-dimethyl-2-(1,4,6,7-tetrahydro-pyrano[4,3-c]pyrazol-3-yl)-5,7-dihydro-3H-imidazo[4,5-f]indol-6-one], the concentration for half-maximal inhibition (IC50) is 16 nM at Aurora A kinase and 100 to 2000 nM in the experiment with HCT 116 cells. Take `CCN1C(=O)C(C)(C)c2cc3nc(-c4n[nH]c5c4CCC5)[nH]c3cc21` [Example 3, 5-Ethyl-7,7-dimethyl-2-(1,4,5,6-tetrahydro-cyclopentapyrazol-3-yl)-5,7-dihydro-3H-imidazo[4,5-f]indol-6-one]: in the experiment with HCT 116 cells, the IC50 lay within 100 to 2000 nM. Still for that read-out and setting: with `CCc1cccc(CC)c1NC(=O)N1Cc2[nH]nc(-c3nc4cc5c(cc4[nH]3)N(C(C)C)C(=O)C5(C)C)c2C1` [Example 21, 3-(5-Isopropyl-7,7-dimethyl-6-oxo-3,5,6,7-tetrahydro-imidazo[4,5-f]indol-2-yl)-4,6-dihydro-1H-pyrrolo[3,4-c]pyrazole-5-carboxylic acid (2,6-diethyl-phenyl)-amide] the figure was 100 to 2000 nM; with `CCN1C(=O)C(C)(C)c2cc3nc(-c4n[nH]c5c4CN(C(=O)N4CCOCC4)CC5)[nH]c3cc21` [Example 18, 5-Ethyl-7,7-dimethyl-2-[5-(morpholine-4-carbonyl)-4,5,6,7-tetrahydro-1H-pyrazolo[4,3-c]pyridin-3-yl]-5,7-dihydro-3H-imidazo[4,5-f]indol-6-one], 100 to 2000 nM.

For orientation: IC50 means the midpoint of a concentration-inhibition curve.
